Data reported in patent US7879881B2, “Piperidinyl compounds that selectively bind integrins” (Janssen Pharmaceutica NV, priority 2002, dated 2011).
Where two headings read alike, the source gives them in different places.

Legend:
Human αvβ3 = target: T1, Human αvβ3 (Homo sapiens, UniProt P05106+P06756); experiment: In Vitro Solid Phase Purified αvβ3 Binding Assay (vitronectin/αvβ3); conditions: vitronectin binding to immobilized purified human αvβ3, mean ± spread
T1 construct: purchased Chemicon International Inc., Temecula, Calif
Summary of the method: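 Purified human αvβ3 immobilized at 1 μg/ml in Tris buffer with Ca, Mg and Mn; compounds competed with 2 nM vitronectin for 3 h at 37 °C. Bound vitronectin detected by anti-vitronectin antibody and peroxidase ABC, absorbance at 490 nm.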

GP IIb/IIIa = GP IIb/IIIa (Homo sapiens, UniProt P05106+P08514); experiment: In Vitro Solid Phase Purified GP IIb/IIIa Binding Assay (biotinylated fibrinogen); conditions: biotinylated fibrinogen binding to immobilized purified GP IIb/IIIa, mean ± spread
Summary of the method: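 Purified GP IIb/IIIa coated overnight at 4° C, blocked with 5% BSA, then incubated with test compound and biotinylated fibrinogen for 2-4 h at RT in modified Tyrodes buffer. Bound fibrinogen detected with avidin-biotin HRP complex and o-phenylenediamine/H2O2 (citrate/phosphate pH 5.3), stopped with 2 N H2SO4.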

human purified αVβ5 = target: T2, human purified αVβ5 (Homo sapiens, UniProt P06756+P18084); experiment: In Vitro Solid Phase Purified αcβ5 Binding Assay (vitronectin/αVβ5); conditions: vitronectin binding to immobilized purified human αVβ5, mean ± spread
T2 construct: purchased Chemicon International, Inc
Summary of the method: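 Purified human integrin immobilized at 1 μg/ml in Tris buffer with Ca2+, Mg2+, Mn2+ and NaCl, then BSA-blocked. Compounds added just before 2 nM vitronectin, 3 h at 37 °C. Bound vitronectin detected by anti-vitronectin antibody with biotin/peroxidase (ABC) detection at 490 nm.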

T1 sequence (P06756 31-889 limits assumed): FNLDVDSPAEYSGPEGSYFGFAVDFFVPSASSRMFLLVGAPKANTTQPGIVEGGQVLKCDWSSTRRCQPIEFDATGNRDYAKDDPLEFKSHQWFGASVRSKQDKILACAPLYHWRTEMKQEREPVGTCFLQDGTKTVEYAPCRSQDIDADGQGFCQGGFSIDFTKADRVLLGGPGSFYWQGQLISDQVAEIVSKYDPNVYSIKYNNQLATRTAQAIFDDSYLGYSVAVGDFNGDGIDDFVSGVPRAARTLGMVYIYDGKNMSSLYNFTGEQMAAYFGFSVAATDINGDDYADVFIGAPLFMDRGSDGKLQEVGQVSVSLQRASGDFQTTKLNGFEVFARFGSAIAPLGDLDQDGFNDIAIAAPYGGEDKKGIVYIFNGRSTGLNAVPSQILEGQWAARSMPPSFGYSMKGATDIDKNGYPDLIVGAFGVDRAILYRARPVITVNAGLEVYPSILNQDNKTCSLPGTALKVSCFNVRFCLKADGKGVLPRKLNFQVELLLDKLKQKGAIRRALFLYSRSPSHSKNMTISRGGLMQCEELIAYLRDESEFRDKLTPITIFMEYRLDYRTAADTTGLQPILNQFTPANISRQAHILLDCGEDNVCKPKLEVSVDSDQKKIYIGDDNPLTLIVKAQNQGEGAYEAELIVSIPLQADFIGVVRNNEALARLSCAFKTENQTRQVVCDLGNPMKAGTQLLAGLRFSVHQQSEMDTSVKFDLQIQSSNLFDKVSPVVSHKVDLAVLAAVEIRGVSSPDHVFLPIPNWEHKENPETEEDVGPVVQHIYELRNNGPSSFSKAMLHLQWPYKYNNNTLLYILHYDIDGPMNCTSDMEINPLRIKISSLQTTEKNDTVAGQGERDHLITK
T1 sequence (P06756 891-1048 partner limits assumed): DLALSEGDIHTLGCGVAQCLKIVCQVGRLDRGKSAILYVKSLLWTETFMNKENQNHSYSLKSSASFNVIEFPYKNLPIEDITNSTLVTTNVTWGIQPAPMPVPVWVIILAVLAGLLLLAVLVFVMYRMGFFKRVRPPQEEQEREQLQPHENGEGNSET
T1 sequence (P05106 27-788): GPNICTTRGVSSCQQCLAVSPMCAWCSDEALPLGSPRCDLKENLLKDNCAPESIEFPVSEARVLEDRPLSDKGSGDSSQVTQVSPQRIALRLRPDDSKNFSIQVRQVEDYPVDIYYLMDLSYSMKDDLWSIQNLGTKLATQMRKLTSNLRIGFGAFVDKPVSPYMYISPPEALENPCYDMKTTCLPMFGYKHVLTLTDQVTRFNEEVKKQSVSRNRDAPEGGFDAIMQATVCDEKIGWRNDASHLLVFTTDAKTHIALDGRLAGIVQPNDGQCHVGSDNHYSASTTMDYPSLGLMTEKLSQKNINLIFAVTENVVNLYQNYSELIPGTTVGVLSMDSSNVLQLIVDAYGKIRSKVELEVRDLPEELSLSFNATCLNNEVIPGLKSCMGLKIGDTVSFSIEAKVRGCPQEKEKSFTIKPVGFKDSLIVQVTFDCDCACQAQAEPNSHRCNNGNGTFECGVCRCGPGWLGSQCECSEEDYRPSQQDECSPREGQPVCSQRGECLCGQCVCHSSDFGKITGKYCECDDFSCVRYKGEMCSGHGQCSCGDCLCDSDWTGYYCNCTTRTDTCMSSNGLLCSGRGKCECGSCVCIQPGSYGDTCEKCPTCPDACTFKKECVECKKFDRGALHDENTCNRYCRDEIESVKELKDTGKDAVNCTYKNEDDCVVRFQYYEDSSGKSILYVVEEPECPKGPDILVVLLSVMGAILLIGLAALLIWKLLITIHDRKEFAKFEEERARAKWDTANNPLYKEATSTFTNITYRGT
T2 sequence (P06756 31-889 limits assumed): as the sequence (P06756 31-889 limits assumed) above
T2 sequence (P06756 891-1048 partner limits assumed): as the sequence (P06756 891-1048 partner limits assumed) above
T2 sequence (P18084 24-799): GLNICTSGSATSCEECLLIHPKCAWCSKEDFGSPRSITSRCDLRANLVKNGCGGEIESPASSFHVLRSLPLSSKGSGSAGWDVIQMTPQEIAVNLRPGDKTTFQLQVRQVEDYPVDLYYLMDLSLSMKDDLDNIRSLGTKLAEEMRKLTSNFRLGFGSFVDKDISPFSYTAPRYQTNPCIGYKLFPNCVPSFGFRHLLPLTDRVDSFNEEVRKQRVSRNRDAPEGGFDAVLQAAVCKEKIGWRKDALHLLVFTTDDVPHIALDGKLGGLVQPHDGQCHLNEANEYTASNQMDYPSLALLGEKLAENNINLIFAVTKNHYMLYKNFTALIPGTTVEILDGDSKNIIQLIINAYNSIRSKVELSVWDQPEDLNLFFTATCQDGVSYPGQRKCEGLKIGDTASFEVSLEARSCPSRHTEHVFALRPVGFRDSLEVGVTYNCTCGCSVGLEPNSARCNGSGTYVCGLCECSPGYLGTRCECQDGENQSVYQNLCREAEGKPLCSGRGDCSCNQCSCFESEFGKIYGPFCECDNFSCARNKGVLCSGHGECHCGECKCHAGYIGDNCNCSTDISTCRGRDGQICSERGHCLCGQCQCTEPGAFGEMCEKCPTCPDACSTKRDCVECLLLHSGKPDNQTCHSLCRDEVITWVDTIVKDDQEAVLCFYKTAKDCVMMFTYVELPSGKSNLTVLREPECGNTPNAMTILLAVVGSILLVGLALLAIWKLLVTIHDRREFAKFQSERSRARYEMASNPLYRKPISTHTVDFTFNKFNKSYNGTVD
Chain of GP IIb/IIIa (P08514 32-887 limits assumed): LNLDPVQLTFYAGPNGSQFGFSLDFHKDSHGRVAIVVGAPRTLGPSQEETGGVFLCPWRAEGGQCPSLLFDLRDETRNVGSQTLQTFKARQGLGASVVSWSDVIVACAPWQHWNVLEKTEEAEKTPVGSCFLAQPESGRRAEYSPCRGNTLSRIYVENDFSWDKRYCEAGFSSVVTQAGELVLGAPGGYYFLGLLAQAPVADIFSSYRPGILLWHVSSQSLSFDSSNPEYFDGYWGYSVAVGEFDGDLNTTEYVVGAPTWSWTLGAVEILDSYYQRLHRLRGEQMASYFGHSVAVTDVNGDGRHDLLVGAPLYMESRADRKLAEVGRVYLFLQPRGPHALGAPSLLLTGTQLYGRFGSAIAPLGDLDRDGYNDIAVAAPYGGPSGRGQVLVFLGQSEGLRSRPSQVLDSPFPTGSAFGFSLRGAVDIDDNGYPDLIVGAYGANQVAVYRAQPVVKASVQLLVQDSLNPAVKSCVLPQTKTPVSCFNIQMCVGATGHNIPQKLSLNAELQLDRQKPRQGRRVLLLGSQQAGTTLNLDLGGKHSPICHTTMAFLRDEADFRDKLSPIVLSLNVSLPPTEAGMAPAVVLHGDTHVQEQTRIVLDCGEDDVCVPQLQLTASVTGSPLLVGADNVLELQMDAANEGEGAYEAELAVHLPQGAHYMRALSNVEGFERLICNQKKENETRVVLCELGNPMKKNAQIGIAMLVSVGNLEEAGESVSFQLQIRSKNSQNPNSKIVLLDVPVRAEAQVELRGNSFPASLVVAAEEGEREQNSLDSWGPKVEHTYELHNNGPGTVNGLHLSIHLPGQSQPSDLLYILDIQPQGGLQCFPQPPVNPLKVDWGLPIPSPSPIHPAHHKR
Chain of GP IIb/IIIa (P08514 891-1039 partner limits assumed): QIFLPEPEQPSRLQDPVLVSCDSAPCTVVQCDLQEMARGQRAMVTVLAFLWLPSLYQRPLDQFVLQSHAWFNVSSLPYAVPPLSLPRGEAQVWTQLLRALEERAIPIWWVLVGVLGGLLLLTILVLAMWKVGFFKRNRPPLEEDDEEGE
Chain of GP IIb/IIIa (P05106 27-788): as the sequence (P05106 27-788) above

| Compound | IC50 (Human αvβ3; read-out: αvβ3IC50) | IC50 (GP IIb/IIIa; read-out: αIIbβ3 IC50) | IC50 (human purified αVβ5; read-out: αvβ5 IC50) | IC50 (Human αvβ3; αvβ3IC50 (uM)) | IC50 (human purified αVβ5; αvβ5 IC50 (uM)) | IC50 (GP IIb/IIIa; αIIbβ3 IC50 (uM)) |
| --- | --- | --- | --- | --- | --- | --- |
| CC1=NCC(C(CC(=O)O)CC2CCN(C(=O)CCc3ccc4c(n3)NCCC4)CC2)CN1 (stereo not drawn) [Cpd 18, 1,4,5,6-tetrahydro-2-methyl-β-[[1-[1-oxo-3-(5,6,7,8-tetrahydro-1,8-naphthyridin-2-yl)propyl]-4-piperidinyl]methyl]-5-pyrimidinepropanoic acid] | > 5 µM | > 50 µM | > 5 µM | – | – | – |
| O=C(O)CCCC1CCN(C(=O)CCc2ccc3c(n2)NCCC3)CC1 [Cpd 61] | 0.0045 ± 0.0007 µM | 37.5 ± 31.6 µM | 0.0253 ± 0.0073 µM | – | – | – |
| COc1ccc(C(CC(=O)O)C2CCN(C(=O)CCCc3ccc4c(n3)NCCC4)CC2)cn1 (stereo not drawn) [Cpd 17, 6-methoxy-β-[1-[1-oxo-4-(5,6,7,8-tetrahydro-1,8-naphthyridin-2-yl)butyl]-4-piperidinyl]-3-pyridinepropanoic acid] | 0.0008 ± 0.0001 µM | 6.6 ± 1.42 µM | 0.0313 ± 0.006 µM | – | – | – |
| COc1cc(C(CC(=O)O)CC2CCN(C(=O)CCc3ccc4c(n3)NCCC4)CC2)ccc1O (racemic) [Cpd 76, 3-(4-Hydroxy-3-methoxy-phenyl)-4-[1-(3-5,6,7,8-tetrahydro-[1,8]naphthyridin-2-yl-propionyl)-piperidin-4-yl]-butyric acid] | 0.0018 ± 0.0003 µM | 5.38 µM | 0.0397 ± 0.0121 µM | – | – | – |
| COc1ccc(C(CCC2CCN(C(=O)CCc3ccc4c(n3)NCCC4)CC2)CC(=O)O)cn1 (stereo not drawn) [Cpd 21, 6-methoxy-β-[2-[1-[1-oxo-3-(5,6,7,8-tetrahydro-1,8-naphthyridin-2-yl)propyl]-4-piperidinyl]ethyl]-3-pyridinepropanoic acid] | 0.028 ± 0.0031 µM | 1.8 ± 0.63 µM | 0.78 µM | – | – | – |
| CN1CC(C(CC(=O)O)CC2CCN(C(=O)CCc3ccc4c(n3)NCCC4)CC2)Cc2ccccc21 (racemic) [Cpd 67, N-Methyl-1,2,3,4-tetrahydro-β-[[1-[1-oxo-3-(5,6,7,8-tetrahydro-1,8-naphthyridin-2-yl)propyl]-4-piperidinyl]methyl]-3-quinolinepropanoic acid] | – | 7.82 µM | – | 0.048 ± 0.003 µM | 0.176 ± 0.035 µM | – |
| COc1ccc(C(CC(=O)O)CC2CCN(C(=O)CCc3ccc4c(n3)NCCC4)CC2)cc1 (racemic) [Cpd 60] | 0.001 ± 0.0008 µM | 4.53 ± 2.47 µM | 0.0309 ± 0.0006 µM | – | – | – |
| COc1cccc(C(CC(=O)O)CC2CCN(C(=O)CCc3ccc4c(n3)NCCC4)CC2)c1 (racemic) [Cpd 59] | 0.0026 ± 0.0014 µM | 7.81 ± 4.67 µM | 0.0096 ± 0.0038 µM | – | – | – |
| O=C(O)CC(c1cnc2ccccc2c1)C1CCN(C(=O)CCCc2ccc3c(n2)NCCC3)CC1 (stereo not drawn) [Cpd 4, β-[1-[1-Oxo-4-(5,6,7,8-tetrahydro-1,8-naphthyridin-2-yl)butyl]-4-piperidinyl]-3-quinolinepropanoic acid] | – | – | – | 0.0005 ± 0.0001 µM | 0.0355 ± 0.0089 µM | 0.87 ± 0.19 µM |
| O=C(O)CC(CC1CCN(C(=O)CCc2ccc3c(n2)NCCC3)CC1)c1ccc2c(c1)OCCO2 (racemic) [Cpd 65] | 0.0008 µM | 3.84 µM | 0.0346 ± 0.0002 µM | – | – | – |
| O=C(O)CC(CC1CCN(C(=O)CCc2ccc3c(n2)NCCC3)CC1)C1CNc2ccccc2C1 (single isomer, unassigned) [Cpd 19-1, 1,2,3,4-tetrahydro-β-[[1-[1-oxo-3-(5,6,7,8-tetrahydro-1,8-naphthyridin-2-yl)propyl]-4-piperidinyl]methyl]-3-quinolinepropanoic acid] | 0.0367 µM | > 50 µM | 1.12 µM | – | – | – |
| O=C(O)CC(CC1CCN(C(=O)CCc2ccc3c(n2)NCCC3)CC1)C1CCOC1 (racemic) [Cpd 62] | 0.09 ± 0.002 µM | > 50 µM | 0.17 ± 0.081 µM | – | – | – |
| O=C(O)CC(CCC1CCN(C(=O)CCCNc2ccccn2)CC1)c1cnc2ccccc2c1 (stereo not drawn) [Cpd 22, β-[2-[1-[1-oxo-4-(2-pyridinylamino)butyl]-4-piperidinyl]ethyl]-3-quinolinepropanoic acid] | 0.0046 ± 0.0008 µM | 0.43 ± 0.07 µM | 0.195 µM | – | – | – |
| O=C(O)CC(C1CCN(C(=O)CCCc2ccc3c(n2)NCCC3)CC1)C1CNc2ccccc2C1 (single isomer, unassigned) [Cpd 5-4, 1,2,3,4-Tetrahydro-β-[1-[1-oxo-4-(5,6,7,8-tetrahydro-1,8-naphthyridin-2-yl)butyl]-4-piperidinyl]-3-quinolinepropanoic acid] | – | 9.82 µM | – | 0.0054 ± 0.0002 µM | 0.162 ± 0.0627 µM | – |
| O=C(O)CC(CCC1CCN(C(=O)CCc2ccc3c(n2)NCCC3)CC1)c1cnc2ccccc2c1 (stereo not drawn) [Cpd 51, β-[2-[1-[1-oxo-3-(5,6,7,8-tetrahydro-1,8-naphthyridin-2-yl)propyl]-4-piperidinyl]ethyl]-3-quinolinepropanoic acid] | 0.003 ± 0.0006 µM | 0.48 ± 0.01 µM | 0.169 ± 0.019 µM | – | – | – |
| O=C(O)CC(CCC1CCN(C(=O)CCc2ccc3c(n2)NCCC3)CC1)c1cccnc1 (stereo not drawn) [Cpd 8, β-[2-[1-[1-Oxo-3-(5,6,7,8-tetrahydro-1,8-naphthyridin-2-yl)propyl]-4-piperidinyl]ethyl]-3-pyridinepropanoic acid] | 0.0179 ± 0.0034 µM | 1.36 ± 0.43 µM | 0.253 µM | – | – | – |
| CNc1cccc(C(CC(=O)O)CC2CCN(C(=O)CCc3ccc4c(n3)NCCC4)CC2)c1 (racemic) [Cpd 79, 3-(3-Methylamino-phenyl)-4-[1-(3-5,6,7,8-tetrahydro-[1,8]naphthyridin-2-yl-propionyl)-piperidin-4-yl]-butyric acid] | 0.0035 ± 0.0015 µM | 40.2 µM | 0.025 ± 0.006 µM | – | – | – |
| O=C(O)CC(CCC1CCN(C(=O)c2cccc(NC3=NCC(O)CN3)c2)CC1)c1ccc2c(c1)OCO2 (stereo not drawn) [Cpd 54, β-(1,3-benzodioxol-5-yl)-1-[3-[(1,4,5,6-tetrahydro-5-hydroxy-2-pyrimidinyl)amino]benzoyl]-4-piperidinepentanoic acid] | 0.0017 ± 0.0005 µM | 0.24 µM | 0.0347 ± 0.0117 µM | – | – | – |
| O=C(O)CC(CC1CCN(C(=O)CCc2ccc3c(n2)NCCC3)CC1)c1ccc(F)cc1 (stereo not drawn) [Cpd 33, β-(4-fluorophenyl)-1-[1-oxo-3-(5,6,7,8-tetrahydro-1,8-naphthyridin-2-yl)propyl]-4-piperidinebutanoic acid] | 0.0013 ± 0.0004 µM | > 50 µM | 0.0226 ± 0.0052 µM | – | – | – |
| O=C(O)CC(CC1CCN(C(=O)CCc2ccc3c(n2)NCCC3)CC1)c1cc(F)cc(F)c1 (stereo not drawn) [Cpd 37, β-(3,5-difluorophenyl)-1-[1-oxo-3-(5,6,7,8-tetrahydro-1,8-naphthyridin-2-yl)propyl]-4-piperidinebutanoic acid] | 0.0158 ± 0.0043 µM | > 50 µM | 0.0897 ± 0.0116 µM | – | – | – |
| CCOC(=O)CCCC1CCN(C(=O)CCc2ccc3c(n2)NCCC3)CC1 [Cpd 68, 4-[1-(3-5,6,7,8-Tetrahydro-[1,8]naphthyridin-2-yl-propionyl)-piperidin-4-yl]-butyric acid ethyl ester] | 0.413 µM | 35.6 µM | > 1 µM | – | – | – |
| O=C(O)CC(CC1CCN(C(=O)CCCc2ccc3c(n2)NCCC3)CC1)c1ccc2c(c1)OCO2 (stereo not drawn) [Cpd 26, β-(1,3-benzodioxol-5-yl)-1-[1-oxo-4-(5,6,7,8-tetrahydro-1,8-naphthyridin-2-yl)butyl]-4-piperidinebutanoic acid] | 0.0277 ± 0.0053 µM | 5.92 µM | 0.5 µM | – | – | – |
| CCCCCCCCOC(=O)CCCC1CCN(C(=O)CCc2ccc3c(n2)NCCC3)CC1 [Cpd 71, 4-[1-(3-5,6,7,8-Tetrahydro-[1,8]naphthyridin-2-yl-propionyl)-piperidin-4-yl]-butyric acid octyl ester] | > 0.5 µM | > 50 µM | > 1 µM | – | – | – |

Second part, led by results:

| IC50 (Human αvβ3; read-out: αvβ3IC50) | IC50 (GP IIb/IIIa; read-out: αIIbβ3 IC50) | IC50 (human purified αVβ5; read-out: αvβ5 IC50) | Compound | IC50 (Human αvβ3; αvβ3IC50 (uM)) | IC50 (human purified αVβ5; αvβ5 IC50 (uM)) | IC50 (GP IIb/IIIa; αIIbβ3 IC50 (uM)) |
| --- | --- | --- | --- | --- | --- | --- |
| 0.0011 ± 0.0002 µM | 10.4 µM | 0.0169 ± 0.0021 µM | COc1cc(C(CC(=O)O)CC2CCN(C(=O)CCc3ccc4c(n3)NCCC4)CC2)ccc1O (stereo not drawn) [Cpd 76a] | – | – | – |
| 0.405 µM | 1.97 µM | 0.28 µM | COc1ccc(C(CCC2CCN(C(=O)CCc3ccc4c(n3)NCCC4)CC2)CC(=O)O)cn1 (single isomer, unassigned) [Cpd 21b, 6-methoxy-β-[2-[1-[1-oxo-3-(5,6,7,8-tetrahydro-1,8-naphthyridin-2-yl)propyl]-4-piperidinyl]ethyl]-3-pyridinepropanoic acid] | – | – | – |
| 0.084 µM | > 50 µM | 0.129 µM | O=C(O)CC(CC1CCN(C(=O)CCc2ccc3c(n2)NCCC3)CC1)c1ccc2c(c1)OCC2 (single isomer, unassigned) [Cpd 36b, 3-(2,3-Dihydro-benzofuran-6-yl)-4-[1-(3-5,6,7,8-tetrahydro-[1,8]naphthyridin-2-yl-propionyl)-piperidin-4-yl]-butyric acid] | – | – | – |
| 0.0213 ± 0.0019 µM | 5.31 µM | 0.841 ± 0.405 µM | COc1ccc(C(CCC2CCN(C(=O)CCc3ccc4c(n3)NCCC4)CC2)CC(=O)O)cn1 (single isomer, unassigned) [Cpd 21a, 6-methoxy-β-[2-[1-[1-oxo-3-(5,6,7,8-tetrahydro-1,8-naphthyridin-2-yl)propyl]-4-piperidinyl]ethyl]-3-pyridinepropanoic acid] | – | – | – |
| 0.0317 ± 0.0147 µM | > 50 µM | 0.0482 ± 0.0028 µM | O=C(O)CC(CC1CCN(C(=O)CCc2ccc3c(n2)NCCC3)CC1)c1cccc(F)c1 (single isomer, unassigned) [Cpd 30b, β-(3-fluorophenyl)-1-[1-oxo-3-(5,6,7,8-tetrahydro-1,8-naphthyridin-2-yl)propyl]-4-piperidinebutanoic acid] | – | – | – |
